Target: Ephrin type-B receptor 4 (Homo sapiens) (UniProt P54760)
Experiment: inhibition of human ephrin receptor B4 activity – biochemical, Z'-LYTE, FRET, protease-coupled, direct format, dose response (AID 1671276)
Conditions: EPHB4 kinase, Z'-LYTE FRET peptide phosphorylation

Ephrin type-B receptor 4 (Homo sapiens), sequence (P54760 whole entry, looked up): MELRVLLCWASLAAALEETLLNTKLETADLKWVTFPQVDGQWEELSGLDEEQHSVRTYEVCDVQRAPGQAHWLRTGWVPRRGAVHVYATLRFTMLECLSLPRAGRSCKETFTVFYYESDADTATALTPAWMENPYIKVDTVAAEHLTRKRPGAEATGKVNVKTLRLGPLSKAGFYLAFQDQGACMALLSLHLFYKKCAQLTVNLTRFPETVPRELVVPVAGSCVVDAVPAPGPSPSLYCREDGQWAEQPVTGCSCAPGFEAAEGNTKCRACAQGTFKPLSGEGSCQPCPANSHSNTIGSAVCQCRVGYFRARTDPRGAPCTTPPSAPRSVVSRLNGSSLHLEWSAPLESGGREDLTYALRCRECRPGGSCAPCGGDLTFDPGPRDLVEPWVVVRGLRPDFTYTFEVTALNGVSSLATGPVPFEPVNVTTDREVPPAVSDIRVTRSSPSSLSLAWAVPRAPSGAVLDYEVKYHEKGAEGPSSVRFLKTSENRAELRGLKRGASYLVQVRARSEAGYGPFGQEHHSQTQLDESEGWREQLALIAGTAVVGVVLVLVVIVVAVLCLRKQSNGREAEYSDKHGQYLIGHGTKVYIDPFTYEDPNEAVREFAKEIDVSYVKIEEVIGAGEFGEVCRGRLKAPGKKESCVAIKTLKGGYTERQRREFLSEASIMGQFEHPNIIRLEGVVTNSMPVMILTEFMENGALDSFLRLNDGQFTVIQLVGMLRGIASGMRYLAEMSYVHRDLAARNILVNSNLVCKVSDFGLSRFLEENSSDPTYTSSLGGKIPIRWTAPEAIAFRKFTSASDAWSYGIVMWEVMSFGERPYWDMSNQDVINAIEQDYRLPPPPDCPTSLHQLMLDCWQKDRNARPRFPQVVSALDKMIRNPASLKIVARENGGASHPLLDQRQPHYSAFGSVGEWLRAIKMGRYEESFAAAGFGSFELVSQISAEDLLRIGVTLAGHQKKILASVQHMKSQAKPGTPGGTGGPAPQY

IC50: 1590 nM
Structure (SMILES): COc1cc2ncnc(Nc3cccc(Cl)c3)c2cc1OC

From PubChem BioAssay AID1671276
